Where “and” joins values, the source holds several entries; their conditions need not be identical. Identical values can stand only once. Entries after “also recorded” stand apart in the source; their conditions may differ. Like-named read-outs stand apart in the source and are kept apart here.
Experiments:
[1] = biological target: human Na,K-ATPase α1β1FXYD1 (Homo sapiens (Human), UniProt P05023); assay type: biochemical
[2] = biological target: human Na,K-ATPase α2β1FXYD1 (Homo sapiens, UniProt P50993); assay type: biochemical
[3] = tested on: 4AP-induced IOP in rabbits; assay type: in vivo, rabbit; settings: for concentration that prevents the 4AP-induced rise in IOP: one drop topically prior to 4AP
basal IOP in rabbits = assay: Basal IOP in rabbits, topical administration; assay type: in vivo, rabbit; settings: for effect on lowering basal IOP: one drop of 1 mM solution, other eye PBS
[4] = tested on: Na,K-ATPase in bovine ciliary NPE cells; assay: biochemical; settings: 1 site model; read-out: Ki, nM ± SEM
[5] = tested on: Na,K-ATPase isoforms α1, α2, α3; settings: cited from earlier work
[6] = tested on: human Na,K-ATPase α2β1FXYD1; assay type: biochemical
[7] = biological target: human Na,K-ATPase α2β2FXYD1 (Homo sapiens (Human), UniProt P50993); assay type: biochemical; settings: for Ki: read-out: Ki in nM ± SEM α2β2
[8] = biological target: human Na,K-ATPase α2β3FXYD1 (Homo sapiens (Human), UniProt P50993+P54709); assay: biochemical; assay type: biochemical
[9] = biological target: Na,K-ATPase in bovine ciliary NPE cells (Bos taurus, UniProt A2VDL6); assay: biochemical
[10] = biological target: Na,K-ATPase in bovine ciliary NPE cells (Bos taurus, UniProt Q08DA1); assay: biochemical
tissues of the eye = assay: Histological examination of eye tissues after topical application for one week; assay type: in vivo, rabbit; settings: one drop of 1 mM daily for one week
Method: In order to assess whether topical application of DcB damaged the tissues of the eye including cornea, iris, lens, cilary body, retina, choroid and sclera, a histological examination was conducted after topical application, using one drop of 1 mM DcB daily for one week in one eye of each animal, with the other eye treated topically with one drop of PBS and serving as the control. Animals were sacrificed, eyes were removed, fixed in 10% neutral buffered formalin, processed routinely for histological examination, trimmed at 4 μm, and stained with hematoxylin and eosin.

[11] = rabbit with a basal IOP of 17 mm Hg
[12] = topical, test period of 4-5 hours

| Compound | Ki ([1]; read-out: Ki in nM ± SEM α1β1) [nM] | Ki ([2]; read-out: Ki in nM ± SEM α2β1) [nM] | effect on lowering basal IOP (basal IOP in rabbits) | Ki [4] [nM] | Selectivity Ki ratio α1β1/α2β1 [6] | Selectivity Ki ratio α1β1/α2β2 [7] | Ki [7] [nM] | Selectivity Ki ratio α1β1/α2β3 [8] | Ki ([8]; read-out: Ki in nM ± SEM α2β3) | selectivity for α2β3 over α1β1 (Ki α1β1:α2β3 ratio) [8] | further results |
| --- | --- | --- | --- | --- | --- | --- | --- | --- | --- | --- | --- |
| CC(C)CN1CCC(O[C@@H]2[C@H](C)O[C@@H](O[C@@H]3[C@H](C)O[C@@H](O[C@H]4CC[C@@]5(C)C(CCC6C5C[C@H](O)[C@]5(C)[C@@H](C7=CC(=O)OC7)CC[C@]65O)C4)C[C@@H]3O)C[C@@H]2O)OC(C)C1 (stereo partly drawn) [DiB] | 92 | 20.6 ± 1.4 | lack of effect; also recorded: neither digoxin nor DiB had a significant effect | – | – | – | – | – | – | – | effect on 4AP-induced IOP ([3]; 10 μM): still effective |
| C[C@H]1O[C@@H](O[C@H]2[C@@H](O)C[C@H](O[C@H]3[C@@H](O)C[C@H](O[C@H]4CC[C@@]5(C)[C@H](CC[C@@H]6[C@@H]5C[C@@H](O)[C@]5(C)[C@@H](C7=CC(=O)OC7)CC[C@]65O)C4)O[C@@H]3C)O[C@@H]2C)C[C@H](O)[C@@H]1O [Digoxin, digoxin, reference compound] | – | – | lack of effect; also recorded: neither digoxin nor DiB had a significant effect | 91.7 ± 10.2 | – | – | – | – | – | – | lower Ki values for α2 compared to α1 [5]: 3-4 fold |
| C[C@H]1O[C@@H](O[C@H]2[C@@H](O)C[C@H](O[C@H]3[C@@H](O)C[C@H](O[C@H]4CC[C@@]5(C)[C@H](CC[C@@H]6[C@@H]5CC[C@]5(C)[C@@H](C7=CC(=O)OC7)CC[C@]65O)C4)O[C@@H]3C)O[C@@H]2C)C[C@H](O)[C@@H]1O [Digitoxin, digitoxin] | – | – | – | – | – | – | – | – | – | – | lower Ki values for α2 compared to α1 [5]: 3-4 fold |
| CC1CN(C)CCC(O[C@@H]2[C@H](C)O[C@@H](O[C@@H]3[C@H](C)O[C@@H](O[C@H]4CC[C@@]5(C)C(CCC6C5C[C@H](O)[C@]5(C)[C@@H](C7=CC(=O)OC7)CC[C@]65O)C4)C[C@@H]3O)C[C@@H]2O)O1 (stereo partly drawn) [DMe] | 103 ± 5.6 | 15.3 ± 1.2 | – | 15.6 ± 1.3 | 6.7 | 5.1 | 20.4 ± 1.8 | 9.5 | 10.8 ± 0.6 nM | – | – |
| CC1CN(C2CC2)CCC(O[C@@H]2[C@H](C)O[C@@H](O[C@@H]3[C@H](C)O[C@@H](O[C@H]4CC[C@@]5(C)C(CCC6C5C[C@H](O)[C@]5(C)[C@@H](C7=CC(=O)OC7)CC[C@]65O)C4)C[C@@H]3O)C[C@@H]2O)O1 (stereo partly drawn) [DcP, 4-((3S,5R,8R,9S,10S,12R,13S,14S,17R)-3-(((2R,4S,5S,6R)-5-(((2S,4S,5S,6R)-5((4-cyclopropyl-2-methyl-1,4-oxazepan-7-yl)oxy)-4-hydroxy-6-methyltetrahydro-2H-pyran-2-yl)oxy)-4-hydroxy-6-methyltetrahydro-2H-pyran-2-yl)oxy)-12,14-dihydroxy-10,13-dimethythylhexadecahydro-1H-cyclopenta[a]phenanthren-17-yl)furan-2(5H)-one] | 109 ± 6.2 | 14.6 ± 11.6 | – | – | 7.5 | 8.5 | 13 ± 1.3 | 13.4 | 8.1 ± 1.36 nM | – | – |
| CC1CN(Cc2ccccc2)CCC(O[C@@H]2[C@H](C)O[C@@H](O[C@@H]3[C@H](C)O[C@@H](O[C@H]4CC[C@@]5(C)C(CCC6C5C[C@H](O)[C@]5(C)[C@@H](C7=CC(=O)OC7)CC[C@]65O)C4)C[C@@H]3O)C[C@@H]2O)O1 (stereo partly drawn) [DBz, 4-(3S,5R,8R,9S,10S,12R,13S,14S,17R)-3-(((2S,4S,5R,6R)-5-(((2S,4S,5S,6R)-5 ((4-benzyl-2-methyl-1,4-oxazepan-7-yl)oxy)-4-hydroxy-6-methyltetrahydro-2H-pyran-2-ypoxy)-4-hydroxy-6-methyltetrahydro-2H-pyran-2-yl)oxy)-12,14-dihydroxy-10,13-dimethythexadecahydro-1H-cyclopenta[a]phenanthren-17-yl)furan-2(5H)-one] | 57.9 ± 15.5 | 10.1 ± 2.2 | – | – | 5.7 | 8.5 | 6.8 ± 1.2 | 10.3 | 5.6 ± 1.6 nM | 10-12 fold | – |
| CC1CN(CC2CC2)CCC(O[C@@H]2[C@H](C)O[C@@H](O[C@@H]3[C@H](C)O[C@@H](O[C@H]4CC[C@@]5(C)C(CCC6C5C[C@H](O)[C@]5(C)[C@@H](C7=CC(=O)OC7)CC[C@]65O)C4)C[C@@H]3O)C[C@@H]2O)O1 (stereo partly drawn) [DMcP] | 95.8 ± 13.7 | 18.3 ± 1.6 | notable effect | 7.9 ± 2.2 | 5.2 | 12 | 8 ± 0.8 | 22.2 | 4.3 ± 0.6 nM | 22 fold | Ki for α1β1 lower than for digoxin [1]: 2-3 fold; Ki [8]: ~4 nM; Ki for α2β3 lower than for digoxin [8]: about 10 fold; concentration that prevents the 4AP-induced rise in IOP [3]: 0.01 mM; reduction of basal IOP (basal IOP in rabbits; [11]): about 4 mm Hg; reduction of basal IOP (basal IOP in rabbits; [12]): 20-25% |
| CC1CN(C2CCCC2)CCC(O[C@@H]2C(C)O[C@@H](OC3C(C)OC(O[C@H]4CC[C@@]5(C)C(CCC6C5CC(O)[C@]5(C)[C@@H](C7=CC(=O)OC7)CC[C@]65O)C4)C[C@@H]3O)C[C@@H]2O)O1 (stereo in doubt) [DcPe, 4-((3S,5R,8R,9S,10S,12R,13S,14S,17R)-3-(((2S,4S,5R,6R)-5-(((2S,4S,5S,6R)-5-((4-cyclopentyl-2-methyl-1,4-oxazepan-7-yl)oxy)-4-hydroxy-6-methyltetrahydro-2H-pyran-2-yl)oxy)-4-hydroxy-6-methyltetrahydro-2H-pyran-2-yl)oxy)-12,14-dihydroxy-10,13-dimethylhexadecahydro-1H-cyclopenta[a]phenanthren-17-yl)furan-2(5H)-one] | 138 ± 21 | 33.4 ± 7.5 | – | – | 4.1 | 4.1 | 33.5 ± 11.9 | 5 | 27.6 ± 9.5 nM | 10-12 fold | – |
| CC1CN(C2CCC2)CCC(O[C@@H]2[C@H](C)O[C@@H](O[C@@H]3[C@H](C)O[C@@H](O[C@H]4CC[C@@]5(C)C(CCC6C5C[C@H](O)[C@]5(C)[C@@H](C7=CC(=O)OC7)CC[C@]65O)C4)C[C@@H]3O)C[C@@H]2O)O1 (stereo partly drawn) [DcB] | 135 ± 11 | 8 ± 1.25 | notable effect | 17.3 ± 2.5 | 16.9 | 22.2 | 6 ± 1 | 33.6 | ~4 nM and 4 nM | 33 fold | Ki for α1β1 lower than for digoxin [1]: 2-3 fold; Ki ([1]; read-out: Ki of α1β1FXYD1): 135 ± 11 nM; Ki ([2]; read-out: Ki of α2β1FXYD1): 8 ± 1.25 nM; Ki for α2β3 lower than for digoxin [8]: about 10 fold; Ki [9]: 6.9 ± 2 nM; Ki ([9]; read-out: Ki α2, 2 sites model): 6.9 nM; Ki [10]: 151 ± 7.6 nM; concentration that prevents the 4AP-induced rise in IOP [3]: 0.01 mM; time after which IOP returned to the control value (basal IOP in rabbits; 1 mM DcB, 0.005% Latanoprost): 12 h; effect on basal IOP at higher concentration (basal IOP in rabbits; 2 mM): reduces the IOP similarly to 1 mM DcB; steady-state IOP as % of the unchanged control values (basal IOP in rabbits; after 3-8 hours): 75-80%; steady-state IOP lower than basal IOP (basal IOP in rabbits; after 3-8 hours, basal IOP 17-18 mmHg, 1 mM DcB, 0.005% Latanoprost): 3.5±0.15 mmHg; reduction of basal IOP (basal IOP in rabbits; [11]): about 4 mm Hg; more effective than Latanoprost in reducing basal IOP (basal IOP in rabbits; relative to Latanoprost): about 25%; reduction of basal IOP (basal IOP in rabbits; [12]): 20-25%; histological differences between treated and untreated eyes (tissues of the eye): No significant histological differences were observed |
| CC1CN(CC(F)(F)F)CCC(O[C@@H]2[C@H](C)O[C@@H](O[C@@H]3[C@H](C)O[C@@H](O[C@H]4CC[C@@]5(C)C(CCC6C5C[C@H](O)[C@]5(C)[C@@H](C7=CC(=O)OC7)CC[C@]65O)C4)C[C@@H]3O)C[C@@H]2O)O1 (stereo partly drawn) [DCF3] | 119 | 28.6 ± 0.9 | – | – | 4.1 | 6.5 | 18.1 ± 1.9 | 9.6 | 12.4 ± 1.5 nM | – | – |
| CC1CN(CC2CC(C)(C)C2)CCC(O[C@@H]2[C@H](C)O[C@@H](O[C@@H]3[C@H](C)O[C@@H](O[C@H]4CC[C@@]5(C)C(CCC6C5C[C@H](O)[C@]5(C)[C@@H](C7=CC(=O)OC7)CC[C@]65O)C4)C[C@@H]3O)C[C@@H]2O)O1 (stereo partly drawn) [DMDMcB, 4-((3S,5R,8R,9S10S,12R,13S,14S,17R)-3-(((2S,4S,5R,6R)-5-(((2S,4S,5S,6R)-5-((4-((3,3-dimethylcyclobutyl)methyl)-2-methyl-1,4-oxazepan-7-yl)oxy)-4-hydroxy-6-methyltetrahydro-2H-pyran-2-yl)oxy)-4-hydroxy-6-methyltetrahydro-2H-pyran-2-yl)oxy)-12,14-dihydroxy-10,13-dimethylhexadecahydro-1H-cyclopenta[a]phenanthren-17-yl)furan-2(5H)-one] | 31.6 ± 0.5 | 8.6 ± 1.4 | – | – | 3.69 | 6.16 | 5.1 ± 0.5 | 8.19 | 3.9 ± 0.7 nM | 10-12 fold | – |
